Data published in patent US12679827B2, “Pyrimidine compounds and their pharmaceutical uses” (National Health Research Institutes, priority 2020, dated 2026).
Like-named read-outs stand apart in the source and are kept apart here.

Assays:
MOLM-13 = assay: Proliferation inhibition of various cancer cells (PrestoBlue), MOLM-13; format: cell-based; conditions: Homo sapiens, Leukemia, 72 hours
Protocol: (§1) The efficacies of compounds 41 and 86 of Formula (I) in inhibiting proliferation of eleven types of cancer cells were determined using PrestoBlue™ Cell Viability Reagent (ThermoFisher Scientific, USA). The eleven types of cancer cells are small cell lung cancer, non-small cell lung cancer, liver cancer, pancreatic cancer, breast cancer, colon cancer, prostate cancer, neuroblastoma, brain cancer, leukemia, and cholangiocarcinoma.
(§2) More specifically, […], i.e., NCI-H82 (ATCC® HTB-175), NCI-H446 (ATCC® HTB-171), NCI-H69 (ATCC® HTB-119), NCI-H146 (ATCC® HTB-173), NCI-H1792 (ATCC® CRL-5895), NCI-H1299 (ATCC® CRL-5803), SNU-398 (ATCC® CRL-2233), PSN-1 (ATCC® CRL-3211), MIA PaCa-2 (ATCC® CRL-1420), MDA-MB-231 (ATCC® HTB-26), LOVO (ATCC® CCL-229), COLO 205 (ATCC® CCL-222), PC-3 (ATCC® CRL-1435), SK-N-BE(2) (ATCC® CRL-2271), D341 Med (ATCC® HTB-187), K562 (ATCC® CCL-243), MOLM-13 (DSMZ-German Collection of Microorganisms and Cell Cultures GmbH, ACC No. 554), and SNU-478 (KCLB 00478), were seeded at a density of 4000-10000 cells per well in 96-well plates for 24 hours. The cancer cells were then treated with each compound at various concentrations (0-10 μM), followed by incubation for another 72 hours. IC50 values were computed based on duplicated 8-point titration.

SNU-398 = assay: Proliferation inhibition of various cancer cells (PrestoBlue), SNU-398; format: cell-based; conditions: Homo sapiens, Liver cancer, 72 hours
Protocol: as §1, §2

SNU-478 = assay: Proliferation inhibition of various cancer cells (PrestoBlue), SNU-478; format: cell-based; conditions: Cholangiocarcinoma; 72 hours
Protocol: as §1, §2

NCI-H1792 = assay: Proliferation inhibition of various cancer cells (PrestoBlue), NCI-H1792; format: cell-based; conditions: Homo sapiens, Non-small cell lung cancer, 72 hours
Protocol: as §1, §2

LOVO = assay: Proliferation inhibition of various cancer cells (PrestoBlue), LOVO; format: cell-based; conditions: Homo sapiens, Colon cancer, 72 hours
Protocol: as §1, §2

[1] = test system: eleven types of cancer cells; assay: Proliferation inhibition of eleven types of cancer cells (summary by cancer type); format: cell-based
Protocol: as §1, §2

NCI-H146 = assay: Proliferation inhibition of various cancer cells (PrestoBlue), NCI-H146; format: cell-based; conditions: Homo sapiens, Small cell lung cancer, 72 hours
Protocol: as §1, §2

MYCN = assay: Western blot, MYCN protein level in SK-N-BE(2) cells; format: cell-based, human; conditions: SK-N-BE(2) (neuroblastoma) cells; 50, 200, 500, 1000 nM; 24 hours; FIG. 1
Protocol: (§3) Compounds 41 and 86, both covered by Formula (I), were tested to assess their efficacies in reducing the level of cMYC oncoprotein in a human small-cell-lung-cancer (“SCLC”) cell line NCI-H82 (ATCC® HTB-175, USA) and the level of MYCN oncoprotein in a human neuroblastoma cell line SK-N-BE(2) (ATCC® CRL-2271, USA) as follows.
(§4) NCI-H82 was maintained in RPMI1640 medium (ThermoFisher Scientific, USA) supplemented with 10% fetal bovine serum (FBS, HyClone, USA) and antibiotics. SK-N-BE(2) was maintained in Minimum Essential Medium (MEM, ThermoFisher Scientific, USA) supplemented with 10% FBS (HyClone, USA) and antibiotics. The cancer cells from each cell line were treated with each of compounds 41 and 86 at 4 different compound concentrations, i.e., 50 nM, 200 nM, 500 nM, and 1000 nM. After 24 hours, each cancer cell solution was washed with 1× phosphate buffered saline (PBS), lysed in 1× Laemmli protein sample buffer, and boiled at 100° C. for 10 minutes. Each lysate was separated by SDS-PAGE, transferred to polyvinylidene fluoride (PVDF, Millipore, USA) membrane, and blotted with antibodies. Primary antibodies used for Western blotting were cMYC (Cell Signaling, Cat No. 5605S), MYCN (Cell Signaling, 9405S), PARP-1 (Abcam, ab32378), and GAPDH (Genetex, GTX100118). […]

NCI-H69 [2] = assay: Proliferation inhibition of various cancer cells (PrestoBlue), NCI-H69; format: cell-based; conditions: Homo sapiens, Small cell lung cancer, 72 hours
Protocol: as §1, §2

NCI-H82 = assay: Small-cell-lung cancer cell proliferation inhibition assay (PrestoBlue), NCI-H82; format: cell-based; conditions: Homo sapiens, cMYC amplified SCLC cells, 72 hours
Protocol: (§5) Small cell lung cancer cells NCI-H82 (ATCC HTB-175, cMYC amplified), NCI-H446 (ATCC® HTB-171, cMYC amplified), and NCI-H69 (ATCC® HTB-119, MYCN amplified) were seeded at the density of 5000-10000 cells per well in 96-well plates. After 24 hours, the cancer cells were treated with each compound at various concentrations (0-10 μM) and then incubated for another 72 hours. IC50 values were computed based on duplicated 8-point titration.

cMYC = assay: Western blot, cMYC protein level in NCI-H82 cells; format: cell-based, human; conditions: NCI-H82 (SCLC) cells; 50, 200, 500, 1000 nM; 24 hours; FIG. 1
Protocol: as §3, §4

MDA-MB-231 = assay: Proliferation inhibition of various cancer cells (PrestoBlue), MDA-MB-231; format: cell-based; conditions: Homo sapiens, Breast cancer, 72 hours
Protocol: as §1, §2

Colo205 = assay: Proliferation inhibition of various cancer cells (PrestoBlue), Colo205; format: cell-based; conditions: Homo sapiens, COLO 205; Colon cancer; 72 hours
Protocol: as §1, §2

NCI-H69 [3] = assay: Small-cell-lung cancer cell proliferation inhibition assay (PrestoBlue), NCI-H69; format: cell-based; conditions: Homo sapiens, MYCN amplified SCLC cells, 72 hours
Protocol: as §5

[4] = all eleven cancer types, read-out: IC50 in inhibiting proliferation of all the eleven types of cancer cells
[5] = breast cancer, read-out: IC50 in inhibiting proliferation of cells
[6] = cholangiocarcinoma, read-out: IC50 in inhibiting proliferation of cells
[7] = non-small cell lung cancer, pancreatic cancer, and colon cancer, read-out: IC50 in inhibiting proliferation of cells
[8] = prostate cancer, read-out: IC50 in inhibiting proliferation of cells
[9] = small-cell-lung cancer, liver cancer, neuroblastoma, brain cancer, and leukemia, read-out: IC50 in inhibiting proliferation of cells

Row | IC50 (MOLM-13) | IC50 (SNU-398) | IC50 (SNU-478) | IC50 (NCI-H1792) | IC50 (LOVO) | IC50 [1, 4] | IC50 [1, 5] | IC50 [1, 6] | IC50 [1, 7] | IC50 [1, 8] | IC50 [1, 9] | IC50 (NCI-H146) | IC50 (NCI-H69 [2]) | IC50 (NCI-H82) | IC50 (MDA-MB-231) | IC50 (Colo205) | IC50 (NCI-H69 [3]) | SMILES | protein level of MYCN (MYCN) | protein level of cMYC (cMYC)
1 | < 200 nM | < 200 nM | < 2000 nM | < 2000 nM | < 10000 nM | < 10000 nM | < 300 nM | < 2000 nM | < 1000 nM | < 10000 nM | < 200 nM | < 2000 nM | < 200 nM | < 1000 nM | < 300 nM | < 1000 nM | – | CCN1CCN(c2cc(Nc3cc(C)[nH]n3)nc(N[C@H]3CCN(C(=O)c4ccc(Cl)cc4F)C3)n2)CC1 [Compound 41] | greatly reduced | greatly reduced
2 | < 200 nM | < 200 nM | < 2000 nM | < 2000 nM | < 10000 nM | < 10000 nM | < 300 nM | < 2000 nM | < 1000 nM | < 10000 nM | < 200 nM | < 10000 nM | < 200 nM | < 1000 nM | < 300 nM | < 1000 nM | < 1000 nM | CCN1CCN(c2cc(Nc3cc(C)[nH]n3)nc(NC3CCN(C(=O)c4cccc(Cl)c4F)CC3)n2)CC1 [Compound 86] | greatly reduced | greatly reduced
